Measured values as given in patent publication US20260102407A1, “TREATMENT METHODS” (priority 2020, published 2026).

Columns and labels:
FosB [1] = assay: Matrigel plug assay, FosB staining; assay type: in vivo; conditions: C57BL/6 mice; 2.5 mg/mouse; 7 days
Protocol: Matrigel plug assay. Matrigel (500 μl) containing VEGF-A165 (100 ng/ml), heparin (10U) and BT2 or BT3 (2.5 mg/mouse) or its vehicle (saline containing 0.01% DMSO and 0.5% Tween 80) was injected subcutaneously into the left flanks of male 8 week-old C57BL/6 mice. After 7d the mice were sacrificed by CO2 asphyxiation and the plugs carefully removed. Formalin-fixed paraffin embedded sections were prepared from Matrigel plugs for immunohistological assessment. Heat-induced epitope retrieval was applied to all deparaffinized sections (4 μm Superfrost slides) in citrate buffer, pH 6 for 5 min at 110° C. Immunostaining for all groups with a given antibody was performed simultaneously and development time was identical. […]
Slides were scanned using an Aperio ScanScope XT slide scanner (Leica Biosystems, Mt Waverley, Vic Australia) and images captured using ImageScope software (Leica Biosystems). Positive intraplug staining was assessed using Image-Pro Plus software (Cybernetics, Bethesda, MD) in 5-12 randomly selected fields of view for each plug photographed under 10× (CD31), 20× (VCAM-1) and 40× (FosB) objectives and expressed as integrated optical density (IOD, the product of calibrated intensity (optical density) and area, i.e. IOD=intensity (mean)×area) (Media Cybernetics) (Liu, H., et al., Sci Rep 6, 21319 (2016)). […]

FosB [2] = assay: Immunohistochemical staining of rat retina, FosB; assay type: in vivo; conditions: lasered rat retinas
From the text: Rat choroidal laser injury model. Male Brown Norway pigmented rats (8-14 week-old) were anesthetized by an intramuscular injection of Rompun® (xylazine)/Imalgene® (ketamine). Pupils were dilated by instillation of one drop of 0.5% tropicamide before laser burn. Six burns were created in both eyes on Day 0 by applying 170 mW of 532 nm laser light (Viridis laser, Quantel, France) on 75 μm spots around the optic nerve, between the main retinal vessel branches, for 0.1s, through the slit lamp and contact lens. Production of a bubble at the time of laser application confirmed the rupture of Bruch's membrane. […] After anaesthesia, 10% sodium fluorescein (250 μl/100 g body weight) was injected subcutaneously, and ocular fluorescence was recorded 10 min after dye injection. Fluorescein leakage was evaluated on Days 14 and 21 in the angiograms by two examiners masked to the study groups and graded for fluorescein intensity as follows: score 0: no leakage; 1: slightly stained; 2: moderately stained; 3: strongly stained.
Immunohistochemical staining of rat retina. […] IOD of positive staining (red chromogen) was assessed for CD31, VEGF-A165, pERK, FosB and VCAM-1 using Image-Pro Plus software (Cybernetics, Bethesda, MD). IOD in IPL and INL was quantified for CD31; OPL to OS for VEGF-A165; INL to ONL for pERK; GCL to OS for FosB; OLM for VCAM-1, using Image-Pro Plus. […]

CCOC(=O)Nc1ccc2c(c1)C(=O)N(CC)c1ccccc1O2 [BT2, (10-ethyl-11-oxo-10,11-dihydro-dibenzo[b,f][1,4]oxazepin-2-yl)-carbamic acid ethyl ester]
FosB immunoreactivity in Matrigel plugs (FosB [1]): inhibited | retinal FosB immunostaining (FosB [2]): inhibited retinal FosB immunostaining
